Literature values as cited in patent US20200068939A1, “Nutritional compositions to increase and sustain blood ketone levels” (JHO Intellectual Property Holdings LLC, priority 2018, published 2020).

Key:
[1] = acute ingestion, 15 min to 6 hr
[2] = not given; remark: listed apart in the source

## Cn1c(=O)c2c(ncn2C)n(C)c1=O [Caffeine]
2.5 mg/kg given at breakfast
  stimulation of ketone production: +88%
2.5, 5.0 mg/kg given at breakfast
  plasma free fatty acids: raised plasma free fatty acids

## C[C@@H](O)CCOC(=O)C[C@@H](C)O [KME, (R)-3-hydroxybutyl (R)-3-hydroxybutyrate]
[1]
  bHB in short-term nutritional ketosis: > 1 mM
[2]; 482 mg/kg 30 min before glucose bolus
  blood βHB concentration at the start of the OGTT: ~3 mM
[2]; 482 mg/kg 30 min before glucose bolus, end of 2 h test
  blood βHB concentration at the end of the OGTT: ~1.5 mM
[2]; 482 mg/kg, 2 h
  reduction in 2 h AUC for serum FFAs: 44%
[2]; 482 mg/kg, over the 2 h period
  reduction of plasma glucose AUC: 16%
